PubChem BioAssay (NCI)
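Where inhibition never reached the appropriate level, the endpoint shown equals the highest concentration tested. Otherwise, values were interpolated linearly from a five-concentration, 48-hour dose response in 96-well plates. The concentration for 50% growth inhibition is given as GI50. At the TGI there is no net growth.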

Legend:
Test in all cases: NCI-60 cell line screen, 48 h
UACC-257 melanoma = system: UACC-257 melanoma
KM12 colon = system: KM12 colon
K-562 leukemia = system: K-562 leukemia
HCT-116 colon = system: HCT-116 colon
UACC-62 melanoma = system: UACC-62 melanoma
OVCAR-8 ovarian = system: OVCAR-8 ovarian
RXF 393 renal = system: RXF 393 renal
LOX IMVI melanoma = system: LOX IMVI melanoma
A498 renal = system: A498 renal
SN12C renal = system: SN12C renal
PC-3 prostate = system: PC-3 prostate
MDA-MB-231 breast = system: MDA-MB-231 breast
M14 melanoma = system: M14 melanoma
MOLT-4 leukemia = system: MOLT-4 leukemia
SNB-19 CNS = system: SNB-19 CNS
HOP-62 NSCLC = system: HOP-62 NSCLC
MALME-3M melanoma = system: MALME-3M melanoma
DU-145 prostate = system: DU-145 prostate
786-0 renal = system: 786-0 renal
RPMI-8226 leukemia = system: RPMI-8226 leukemia
SF-539 CNS = system: SF-539 CNS
HL-60(TB) leukemia = system: HL-60(TB) leukemia
UO-31 renal = system: UO-31 renal
EKVX NSCLC = system: EKVX NSCLC
ACHN renal = system: ACHN renal
SK-MEL-2 melanoma = system: SK-MEL-2 melanoma
SK-MEL-28 melanoma = system: SK-MEL-28 melanoma

CC(C)(C)c1cc(NC(=O)Nc2ccc(-c3cn4c5c(sc4n3)CCc3cn(CCCN4CCCCC4)cc3-5)cc2)no1
GI50 (UACC-257 melanoma): 1.79 µM | TGI (UACC-257 melanoma): 3.5 µM | GI50 (KM12 colon): 1.9 µM | TGI (KM12 colon): 3.83 µM | GI50 (K-562 leukemia): 2.57 µM | TGI (K-562 leukemia): > 100 µM | GI50 (HCT-116 colon): 1.67 µM | TGI (HCT-116 colon): 3.22 µM | GI50 (UACC-62 melanoma): > 100 µM | TGI (UACC-62 melanoma): > 100 µM | GI50 (OVCAR-8 ovarian): 2.27 µM | TGI (OVCAR-8 ovarian): 5.26 µM | GI50 (RXF 393 renal): 1.6 µM | TGI (RXF 393 renal): 3.1 µM | GI50 (LOX IMVI melanoma): 1.8 µM | TGI (LOX IMVI melanoma): 3.3 µM | GI50 (A498 renal): 1.76 µM | TGI (A498 renal): 3.15 µM | GI50 (SN12C renal): 1.85 µM | TGI (SN12C renal): 3.49 µM | GI50 (PC-3 prostate): 1.71 µM | TGI (PC-3 prostate): 3.23 µM | GI50 (MDA-MB-231 breast): 1.95 µM | TGI (MDA-MB-231 breast): 3.73 µM | GI50 (M14 melanoma): 1.71 µM | TGI (M14 melanoma): 3.15 µM | GI50 (MOLT-4 leukemia): 1.93 µM | TGI (MOLT-4 leukemia): 6.83 µM | GI50 (SNB-19 CNS): 1.82 µM | TGI (SNB-19 CNS): 3.34 µM | GI50 (HOP-62 NSCLC): 1.9 µM | TGI (HOP-62 NSCLC): 3.75 µM | GI50 (MALME-3M melanoma): 1.71 µM | TGI (MALME-3M melanoma): 3.38 µM | GI50 (DU-145 prostate): 1.77 µM | TGI (DU-145 prostate): 3.17 µM | GI50 (786-0 renal): 1.76 µM | TGI (786-0 renal): 3.21 µM | GI50 (RPMI-8226 leukemia): 2.36 µM | TGI (RPMI-8226 leukemia): 6.28 µM | GI50 (SF-539 CNS): 1.74 µM | TGI (SF-539 CNS): 3.18 µM | GI50 (HL-60(TB) leukemia): 1.88 µM | TGI (HL-60(TB) leukemia): 6.27 µM | GI50 (UO-31 renal): 1.6 µM | TGI (UO-31 renal): 3 µM | GI50 (EKVX NSCLC): 1.79 µM | TGI (EKVX NSCLC): 3.23 µM | GI50 (ACHN renal): 1.79 µM | TGI (ACHN renal): 3.21 µM | GI50 (SK-MEL-2 melanoma): > 100 µM | TGI (SK-MEL-2 melanoma): > 100 µM | GI50 (SK-MEL-28 melanoma): 1.82 µM | TGI (SK-MEL-28 melanoma): 3.25 µM
